Holding throughout (assay type): cell-based, Oocyte
Assay [1] addresses Glutamate receptor ionotropic, NMDA 2C (Rattus norvegicus, UniProt P35439+Q00961). Nature of the assay: In vitro inhibition of NMDA responses at NR1A/2C receptor expressed in Xenopus oocytes.
The target of assay [2] is Glutamate NMDA receptor; Grin1/Grin2b (Rattus norvegicus, UniProt P35439+Q00960). Kind of assay: In vitro inhibition of NMDA responses at NR1A/2B receptor expressed in Xenopus oocytes.
For assay [3], the target named is Glutamate NMDA receptor; Grin1/Grin2a (Rattus norvegicus, UniProt P35439+Q00959). Kind of assay: In vitro inhibition of NMDA responses at NR1A/2A receptor expressed in Xenopus oocytes.
Chain of Glutamate NMDA receptor; Grin1/Grin2a (Q00959 whole entry, looked up, other chains not shown): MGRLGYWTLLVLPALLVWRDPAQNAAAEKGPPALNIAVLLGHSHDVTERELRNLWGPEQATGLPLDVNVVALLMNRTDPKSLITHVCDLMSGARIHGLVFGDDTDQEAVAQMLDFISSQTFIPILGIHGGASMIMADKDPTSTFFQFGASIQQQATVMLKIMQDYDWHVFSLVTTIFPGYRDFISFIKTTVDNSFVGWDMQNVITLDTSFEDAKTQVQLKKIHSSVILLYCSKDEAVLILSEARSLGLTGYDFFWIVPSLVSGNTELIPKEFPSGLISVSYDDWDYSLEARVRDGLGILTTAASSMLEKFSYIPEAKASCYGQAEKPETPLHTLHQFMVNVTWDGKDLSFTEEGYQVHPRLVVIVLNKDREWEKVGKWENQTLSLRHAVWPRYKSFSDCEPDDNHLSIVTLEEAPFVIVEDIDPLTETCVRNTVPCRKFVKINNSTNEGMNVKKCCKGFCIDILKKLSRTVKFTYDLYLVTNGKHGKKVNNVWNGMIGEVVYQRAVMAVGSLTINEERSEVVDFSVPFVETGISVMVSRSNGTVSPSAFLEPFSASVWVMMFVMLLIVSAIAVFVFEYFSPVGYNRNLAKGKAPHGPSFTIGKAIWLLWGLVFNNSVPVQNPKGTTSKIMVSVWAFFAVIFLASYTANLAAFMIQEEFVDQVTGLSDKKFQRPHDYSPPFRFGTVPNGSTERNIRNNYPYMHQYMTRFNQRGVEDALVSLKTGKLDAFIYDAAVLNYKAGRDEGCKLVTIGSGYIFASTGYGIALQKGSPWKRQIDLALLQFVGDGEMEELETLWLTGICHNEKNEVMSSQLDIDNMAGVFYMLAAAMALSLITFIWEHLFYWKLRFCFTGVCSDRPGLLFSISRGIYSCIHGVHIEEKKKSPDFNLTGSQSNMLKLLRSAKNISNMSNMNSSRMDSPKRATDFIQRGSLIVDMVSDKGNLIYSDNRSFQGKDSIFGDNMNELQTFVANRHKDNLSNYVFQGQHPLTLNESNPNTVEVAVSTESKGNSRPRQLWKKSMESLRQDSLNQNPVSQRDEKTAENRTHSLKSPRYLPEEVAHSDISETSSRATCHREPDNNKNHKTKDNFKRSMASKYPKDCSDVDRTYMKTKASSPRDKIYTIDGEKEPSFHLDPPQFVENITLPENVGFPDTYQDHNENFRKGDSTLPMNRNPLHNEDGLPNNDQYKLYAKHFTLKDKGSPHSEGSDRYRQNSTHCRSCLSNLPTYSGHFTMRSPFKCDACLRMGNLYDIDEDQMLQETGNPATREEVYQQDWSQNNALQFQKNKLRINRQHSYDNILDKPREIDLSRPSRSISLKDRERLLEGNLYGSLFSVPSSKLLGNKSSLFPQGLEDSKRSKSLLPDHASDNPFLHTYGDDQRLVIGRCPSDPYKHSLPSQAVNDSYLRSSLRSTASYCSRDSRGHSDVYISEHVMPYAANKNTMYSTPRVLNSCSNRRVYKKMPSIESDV

We go through eight molecules from ChEMBL document CHEMBL1133098, “Subtype-selective N-methyl-D-aspartate receptor antagonists: benzimidazalone and hydantoin as phenol replacements” (J Med Chem, 2000).

Some results are limits rather than exact numbers.

Chain of Glutamate receptor ionotropic, NMDA 2C (Q00961 whole entry, one chain of several): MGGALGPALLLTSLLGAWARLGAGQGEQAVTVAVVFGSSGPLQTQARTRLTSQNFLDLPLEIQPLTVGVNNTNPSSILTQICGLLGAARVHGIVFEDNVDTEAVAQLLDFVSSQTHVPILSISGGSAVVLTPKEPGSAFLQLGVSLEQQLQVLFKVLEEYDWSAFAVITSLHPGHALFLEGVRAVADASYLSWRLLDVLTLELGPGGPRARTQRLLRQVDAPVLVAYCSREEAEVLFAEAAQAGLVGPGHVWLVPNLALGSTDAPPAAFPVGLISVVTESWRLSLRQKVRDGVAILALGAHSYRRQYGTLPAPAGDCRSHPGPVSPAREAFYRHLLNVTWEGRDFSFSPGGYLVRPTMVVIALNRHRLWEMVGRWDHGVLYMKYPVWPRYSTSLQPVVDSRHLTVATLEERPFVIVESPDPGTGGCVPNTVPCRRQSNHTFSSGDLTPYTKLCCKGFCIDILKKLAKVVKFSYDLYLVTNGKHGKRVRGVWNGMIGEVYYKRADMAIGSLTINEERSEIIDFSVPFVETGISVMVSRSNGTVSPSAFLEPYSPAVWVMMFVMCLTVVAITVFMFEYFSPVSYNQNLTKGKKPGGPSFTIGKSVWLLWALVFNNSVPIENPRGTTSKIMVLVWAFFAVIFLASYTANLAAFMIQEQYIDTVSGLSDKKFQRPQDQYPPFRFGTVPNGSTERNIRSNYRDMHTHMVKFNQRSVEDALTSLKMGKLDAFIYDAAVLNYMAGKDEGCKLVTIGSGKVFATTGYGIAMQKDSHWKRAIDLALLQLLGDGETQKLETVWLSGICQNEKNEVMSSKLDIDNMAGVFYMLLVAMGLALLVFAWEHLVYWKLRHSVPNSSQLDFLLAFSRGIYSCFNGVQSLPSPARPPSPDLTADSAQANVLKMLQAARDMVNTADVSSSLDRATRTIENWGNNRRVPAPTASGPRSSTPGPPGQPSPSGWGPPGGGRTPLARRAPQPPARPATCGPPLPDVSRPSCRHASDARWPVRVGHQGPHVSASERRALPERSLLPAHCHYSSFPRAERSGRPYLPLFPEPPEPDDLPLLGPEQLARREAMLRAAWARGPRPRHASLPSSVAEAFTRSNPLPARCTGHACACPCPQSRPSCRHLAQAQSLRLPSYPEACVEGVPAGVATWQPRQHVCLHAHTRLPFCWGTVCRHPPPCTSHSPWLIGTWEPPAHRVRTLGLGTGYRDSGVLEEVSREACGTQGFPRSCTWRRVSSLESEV
Chain of Glutamate NMDA receptor; Grin1/Grin2b (Q00960 whole entry, looked up, other chains not shown): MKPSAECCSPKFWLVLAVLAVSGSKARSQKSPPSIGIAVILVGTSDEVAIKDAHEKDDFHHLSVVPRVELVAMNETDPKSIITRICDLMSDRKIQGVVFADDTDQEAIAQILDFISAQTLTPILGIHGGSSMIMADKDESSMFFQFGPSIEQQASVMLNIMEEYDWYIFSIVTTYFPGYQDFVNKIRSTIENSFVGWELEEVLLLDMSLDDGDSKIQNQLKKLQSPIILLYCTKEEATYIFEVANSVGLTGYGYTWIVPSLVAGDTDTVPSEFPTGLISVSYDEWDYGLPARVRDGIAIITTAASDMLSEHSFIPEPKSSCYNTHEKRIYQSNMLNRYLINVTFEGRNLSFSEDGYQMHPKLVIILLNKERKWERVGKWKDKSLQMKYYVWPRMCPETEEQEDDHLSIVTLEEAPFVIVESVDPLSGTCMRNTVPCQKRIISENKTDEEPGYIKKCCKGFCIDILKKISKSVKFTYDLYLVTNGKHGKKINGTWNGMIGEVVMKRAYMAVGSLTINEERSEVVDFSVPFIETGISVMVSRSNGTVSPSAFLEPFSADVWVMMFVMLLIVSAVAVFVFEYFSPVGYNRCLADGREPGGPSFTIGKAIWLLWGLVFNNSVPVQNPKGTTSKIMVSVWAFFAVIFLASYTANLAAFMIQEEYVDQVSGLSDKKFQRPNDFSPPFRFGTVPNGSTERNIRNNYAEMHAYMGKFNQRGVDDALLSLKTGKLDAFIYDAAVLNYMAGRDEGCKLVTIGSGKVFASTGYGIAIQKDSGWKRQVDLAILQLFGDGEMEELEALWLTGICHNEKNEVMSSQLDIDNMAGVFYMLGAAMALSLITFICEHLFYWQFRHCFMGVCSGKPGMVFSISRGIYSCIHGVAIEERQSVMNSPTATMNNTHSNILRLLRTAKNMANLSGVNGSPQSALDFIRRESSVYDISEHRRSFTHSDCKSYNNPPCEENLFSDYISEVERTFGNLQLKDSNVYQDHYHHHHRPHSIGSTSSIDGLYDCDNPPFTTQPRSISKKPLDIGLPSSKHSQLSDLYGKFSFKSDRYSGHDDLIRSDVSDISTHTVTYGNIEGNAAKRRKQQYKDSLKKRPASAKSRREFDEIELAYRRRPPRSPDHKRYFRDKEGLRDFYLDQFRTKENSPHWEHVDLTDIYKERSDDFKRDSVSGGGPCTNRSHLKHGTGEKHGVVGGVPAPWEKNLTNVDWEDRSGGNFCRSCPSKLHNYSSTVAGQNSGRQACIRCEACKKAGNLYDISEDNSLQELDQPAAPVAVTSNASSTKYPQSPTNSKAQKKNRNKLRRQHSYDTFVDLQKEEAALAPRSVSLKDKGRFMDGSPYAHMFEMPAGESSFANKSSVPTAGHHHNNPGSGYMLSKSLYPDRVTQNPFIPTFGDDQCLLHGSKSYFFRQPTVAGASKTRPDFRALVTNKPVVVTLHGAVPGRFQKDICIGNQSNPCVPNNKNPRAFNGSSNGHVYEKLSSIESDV

As for `O=c1[nH]c2ccccc2n1CCCN1CCC(Cc2ccc(F)cc2)CC1`, the IC50 in assay [1] was over 100 µM; in assay [2] it was 0.11 µM; in assay [3], over 100 µM.
`O=C1CNC(=O)N1CCCCCN1CCC(Cc2ccccc2)CC1`: the IC50 in assay [1] was over 100 µM; in assay [2], 49 µM; in assay [3], 88 µM.
For `Oc1ccc(OCCN2CCC(Cc3ccccc3)CC2)cc1`, the half-maximal inhibitory concentration (IC50) in assay [1] and in assay [3] was over 100 µM each time.
For the molecule `O=C1CNC(=O)N1CCCN1CCC(Cc2ccccc2)CC1`, the IC50 is over 100 µM in assay [1], 27 µM in assay [2] and over 100 µM in assay [3].
Consider `O=c1[nH]c2ccccc2n1CCCN1CCC(Cc2ccccc2)CC1`, for which the results for the IC50 in assay [1], in assay [2] and in assay [3] were over 100 µM, 0.095 µM and over 100 µM, respectively.
As for `Oc1nc2ccccc2n1CCCCN1CCC(Cc2ccccc2)CC1`, the IC50 was over 100 µM in assay [1], 3.4 µM in assay [2] and over 100 µM in assay [3].
Turning to `O=C1CNC(=O)N1CCCCN1CCC(Cc2ccccc2)CC1`, the half-inhibitory concentration (IC50) is over 100 µM in assay [1], 10 µM in assay [2] and over 100 µM in assay [3].
For the molecule `O=c1[nH]c2ccccc2n1CCCCCN1CCC(Cc2ccccc2)CC1`, the IC50 in assay [1] is over 100 µM; in assay [2], 11 µM; in assay [3], over 100 µM.

As a reminder, the IC50 is the concentration that inhibits the measured activity by half.
